In brackets after ≈: the same amount, converted by molar mass.
Legend:
Format in all cases: cell-based
[1] = test system: MYCOBACTERIUM SMEGMATIS ATCC 114; experiment: In vitro antibacterial activity, MIC, BHI agar dilution; details: M. smegmatis ATCC 114, unit assumed
[2] = test system: PSEUDOMONAS AERUGINOSA DPHD-2862; experiment: as above; details: P. aeruginosa DPHD-2862, unit assumed
[3] = test system: PSEUDOMONAS AERUGINOSA K799/WT; experiment: as above; details: P. aeruginosa K799/WT, unit assumed
[4] = test system: STREPTOCOCCUS BOVIS A-5169; experiment: as above; details: S. bovis A-5169, unit assumed
ESCHERICHIA COLI DC-2 = experiment: as above; details: E. coli DC-2, unit assumed
[5] = test system: STAPHYLOCOCCUS AUREUS A5177; experiment: as above; details: S. aureus A5177, unit assumed
ESCHERICHIA COLI KNK 437 = details: E. coli KNK 437; BHI agar; unit assumed
CANDIDA ALBICANS CCH 442 = experiment: In vitro antibacterial activity, MIC, BHI agar dilution; details: C. albicans CCH 442, unit assumed
[6] = test system: ENTEROBACTER AEROGENES ATCC 13048; experiment: as above; details: E. aerogenes ATCC 13048, unit assumed
[7] = test system: PROVIDENCIA STUARTII CMX 640; details: P. stuartii CMX 640; BHI agar; unit assumed
ESCHERICHIA COLI H560 = experiment: In vitro antibacterial activity, MIC, BHI agar dilution; details: E. coli H560, unit assumed
ESCHERICHIA COLI SS = experiment: as above; details: E. coli SS, unit assumed
[8] = test system: STAPHYLOCOCCUS AUREUS NCTC10649M; experiment: as above; details: S. aureus NCTC10649M, unit assumed
PSEUDOMONAS CEPACIA 296I = experiment: as above; details: P. cepacia 296I, unit assumed
[9] = test system: STREPTOCOCCUS PYOGENES 930; experiment: as above; details: S. pyogenes 930, unit assumed
[10] = test system: STAPHYLOCOCCUS AUREUS CMX 553; experiment: as above; details: S. aureus CMX 553, unit assumed
M[…] ATCC 9341 = experiment: as above; details: M. luteus ATCC 9341, unit assumed
How it was run: (§1)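 Twelve successive aqueous dilutions of compound in Brain Heart Infusion agar were inoculated with 1:100 culture dilutions (1:10 for slow growers such as Micrococcus, Streptococcus) by Steers replicator and incubated at 35-37° C for 20 to 24 hours. MIC was the lowest concentration giving no growth, slight haze or sparse colonies versus drug-free control.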

EN[…] ATCC 8043 = experiment: as above; details: E. faecium ATCC 8043, unit assumed
How it was run: as §1

STR[…] 508 = experiment: as above; details: S. agalactiae CMX 508, unit assumed
How it was run: as §1

M[…] ATCC 4698 = experiment: as above; details: M. luteus ATCC 4698, unit assumed
How it was run: as §1

[11] = test system: STAPHYLOCOCCUS EPIDERMIDIS 3519; details: S. epidermidis 3519; BHI agar; unit assumed
[12] = test system: STAPHYLOCOCCUS AUREUS ATCC 6538P; experiment: In vitro antibacterial activity, MIC, BHI agar dilution; details: S. aureus ATCC 6538P, 35-37° C., 20 to 24 hours, unit assumed
[13] = test system: PSEUDOMONAS AERUGINOSA BMH10; experiment: as above; details: P. aeruginosa BMH10, unit assumed
[14] = test system: STAPHYLOCOCCUS AUREUS A-5278; experiment: as above; details: S. aureus A-5278, unit assumed
ESCHERICHIA COLI JUHL = details: E. coli JUHL; BHI agar; unit assumed
[15] = test system: PSEUDOMONAS AERUGINOSA DPHD-5263; experiment: In vitro antibacterial activity, MIC, BHI agar dilution; details: P. aeruginosa DPHD-5263, unit assumed
[16] = test system: PSEUDOMONAS AERUGINOSA K799/61; experiment: as above; details: P. aeruginosa K799/61, unit assumed
[17] = test system: ACINETOBACTER CALCOACETICUS CMX 669; experiment: as above; details: A. calcoaceticus CMX 669, unit assumed
[18] = test system: PSEUDOMONAS AERUGINOSA 5007; experiment: as above; details: P. aeruginosa 5007, unit assumed
[19] = test system: STAPHYLOCOCCUS AUREUS 1775; experiment: as above; details: S. aureus 1775, unit assumed
[20] = test system: STREPTOCOCCUS PYOGENES EES61; experiment: as above; details: S. pyogenes EES61, unit assumed
[21] = test system: STAPHYLOCOCCUS AUREUS CMX 642A; experiment: as above; details: S. aureus CMX 642A, unit assumed
[22] = test system: STREPTOCOCCUS PYOGENES PIU 2548; experiment: as above; details: S. pyogenes PIU 2548, unit assumed
[23] = test system: KLEBSIELLA PNEUMONIAE ATCC 8045; experiment: as above; details: K. pneumoniae ATCC 8045, unit assumed

Structure (SMILES)	MIC [1]	MIC [2]	MIC [3]	MIC [4]	MIC (ESCHERICHIA COLI DC-2)	MIC [5]	MIC (ESCHERICHIA COLI KNK 437)	MIC (CANDIDA ALBICANS CCH 442)	MIC [6]	MIC [7]	MIC (ESCHERICHIA COLI H560)	MIC (ESCHERICHIA COLI SS)	MIC [8]	MIC (PSEUDOMONAS CEPACIA 296I)	MIC [10]	MIC (M[…] ATCC 9341)	MIC (EN[…] ATCC 8043)	MIC (STR[…] 508)	MIC (M[…] ATCC 4698)	MIC [11]	further results
CC[C@H]1OC(=O)[C@H](C)C(=O)[C@H](C)[C@@H](O[C@@H]2O[C@H](C)C[C@H](N(C)C)[C@H]2O)[C@](C)(OC)C[C@@H](C)C2=N[C@H](COCc3cccnc3)CN3C(=O)O[C@@]1(C)[C@H]3[C@H]2C [Example 82]	3.1 µg/mL (≈ 4.08 µM)	> 100 µg/mL	> 100 µg/mL	0.05 µg/mL (≈ 0.0659 µM)	> 100 µg/mL	0.39 µg/mL (≈ 0.514 µM)	> 100 µg/mL	> 100 µg/mL	> 100 µg/mL	> 100 µg/mL	> 100 µg/mL	0.78 µg/mL (≈ 1.03 µM)	0.39 µg/mL (≈ 0.514 µM)	> 100 µg/mL	0.39 µg/mL (≈ 0.514 µM)	0.05 µg/mL (≈ 0.0659 µM)	0.05 µg/mL (≈ 0.0659 µM)	0.05 µg/mL (≈ 0.0659 µM)	0.39 µg/mL (≈ 0.514 µM)	0.39 µg/mL (≈ 0.514 µM)	MIC [9]: > 100 µg/mL; MIC [12]: 0.39 µg/mL (≈ 0.514 µM); MIC [13]: > 100 µg/mL; MIC [14]: > 100 µg/mL; MIC (ESCHERICHIA COLI JUHL): > 100 µg/mL; MIC [15]: > 100 µg/mL; MIC [16]: 3.1 µg/mL (≈ 4.08 µM); MIC [17]: > 100 µg/mL; MIC [18]: > 100 µg/mL; MIC [19]: > 100 µg/mL; MIC [20]: 0.05 µg/mL (≈ 0.0659 µM); MIC [21]: 0.39 µg/mL (≈ 0.514 µM); MIC [22]: 0.39 µg/mL (≈ 0.514 µM)
CC[C@H]1OC(=O)[C@H](C)C(=O)[C@H](C)[C@@H](O[C@@H]2O[C@H](C)C[C@H](N(C)C)[C@H]2O)[C@](C)(OC)C[C@@H](C)C2=N[C@H](COCc3ccccc3)CN3C(=O)O[C@@]1(C)[C@H]3[C@H]2C [Example 88]	0.39 µg/mL (≈ 0.515 µM)	> 100 µg/mL	> 100 µg/mL	0.02 µg/mL (≈ 0.0264 µM)	> 100 µg/mL	0.2 µg/mL (≈ 0.264 µM)	> 100 µg/mL	> 100 µg/mL	> 100 µg/mL	> 100 µg/mL	100 µg/mL (≈ 132 µM)	1.56 µg/mL (≈ 2.06 µM)	0.2 µg/mL (≈ 0.264 µM)	100 µg/mL (≈ 132 µM)	0.2 µg/mL (≈ 0.264 µM)	0.1 µg/mL (≈ 0.132 µM)	0.2 µg/mL (≈ 0.264 µM)	0.05 µg/mL (≈ 0.066 µM)	0.2 µg/mL (≈ 0.264 µM)	0.39 µg/mL (≈ 0.515 µM)	MIC [23]: > 100 µg/mL; MIC [12]: 0.39 µg/mL (≈ 0.515 µM); MIC [13]: > 100 µg/mL; MIC [14]: > 100 µg/mL; MIC (ESCHERICHIA COLI JUHL): > 100 µg/mL; MIC [15]: > 100 µg/mL; MIC [16]: 6.2 µg/mL (≈ 8.18 µM); MIC [17]: 100 µg/mL (≈ 132 µM); MIC [18]: > 100 µg/mL; MIC [19]: > 100 µg/mL; MIC [20]: ≤ 0.005 µg/mL; MIC [21]: 0.39 µg/mL (≈ 0.515 µM)
CC[C@H]1OC(=O)[C@H](C)C(=O)[C@H](C)[C@@H](O[C@@H]2O[C@H](C)C[C@H](N(C)C)[C@H]2O)[C@](C)(OC)C[C@@H](C)C2=NC3COCC3N3C(=O)O[C@@]1(C)[C@H]3[C@H]2C (some centres unmarked) [Example 108]	12.5 µg/mL (≈ 18.4 µM)	> 100 µg/mL	> 100 µg/mL	0.02 µg/mL (≈ 0.0294 µM)	> 100 µg/mL	0.39 µg/mL (≈ 0.574 µM)	> 100 µg/mL	> 100 µg/mL	> 100 µg/mL	> 100 µg/mL	> 100 µg/mL	0.78 µg/mL (≈ 1.15 µM)	0.78 µg/mL (≈ 1.15 µM)	> 100 µg/mL	0.78 µg/mL (≈ 1.15 µM)	0.1 µg/mL (≈ 0.147 µM)	0.2 µg/mL (≈ 0.294 µM)	0.1 µg/mL (≈ 0.147 µM)	0.78 µg/mL (≈ 1.15 µM)	1.56 µg/mL (≈ 2.29 µM)	MIC [23]: > 100 µg/mL; MIC [9]: > 100 µg/mL; MIC [12]: 0.39 µg/mL (≈ 0.574 µM); MIC [13]: > 100 µg/mL; MIC [14]: > 100 µg/mL; MIC [15]: > 100 µg/mL; MIC [16]: 6.2 µg/mL (≈ 9.12 µM); MIC [17]: 100 µg/mL (≈ 147 µM); MIC [18]: > 100 µg/mL; MIC [19]: > 100 µg/mL; MIC [20]: 0.1 µg/mL (≈ 0.147 µM); MIC [21]: 0.78 µg/mL (≈ 1.15 µM); MIC [22]: 0.39 µg/mL (≈ 0.574 µM)

Reference: patent publication US6274715A, “Tricyclic erythromycin derivatives” (priority 1997, dated 2001)
